Where two headings read alike, the source gives them in different places.
Molecular target: NMDA receptor (NR1 + NR2 subunits) (Rattus norvegicus, UniProt P35439+Q00960)
Assay: Two electrode voltage clamp recording from Xenopus laevis oocytes (pH dependence of NMDA antagonism)
Assay type: cell-based
Protocol: cRNA was synthesized from linearized template cDNA for rat glutamate receptor subunits according to manufacturer specifications (Ambion). Quality of synthesized cRNA was assessed by gel electrophoresis, and quantity was estimated by spectroscopy and gel electrophoresis. Stage V and VI oocytes were surgically removed from the ovaries of large, well-fed and healthy Xenopus laevis anesthetized with 3-amino-benzoic acid ethyl ester (3 gm/l) as previously described. Clusters of isolated oocytes were incubated with 292 U/ml Worthington (Freehold, N.J.) type IV collagenase or 1.3 mg/ml collagenase (Life Technologies, Gaithersburg, Md.; 17018-029) for 2 hr in Ca^2+-free solution comprised of (in mM) 115 NaCl, 2.5 KCl, and 10 HEPES, pH 7.5, with slow agitation to remove the follicular cell layer. Oocytes were then washed extensively in the same solution supplemented with 1.8 mM CaCl2 and maintained in Barth's solution comprised of (in mM): 88 NaCl, 1 KCl, 2.4 NaHCO3, 10 HEPES, 0.82 MgSO4, 0.33 Ca(NO3)2, and 0.91 CaCl2 and supplemented with 100 μg/ml gentamycin, 10 μg/ml streptomycin, and 10 μg/ml penicillin. Oocytes were manually defolliculated and injected within 24 hrs of isolation with 3-5 ng of NR1 subunit cRNA and 7-10 ng of NR2 cRNA subunit in a 50 nl volume, or 5-10 ng of AMPA or kainate receptor cRNAs in a 50 nl volume, and incubated in Barth's solution at 18° C. for 1-7 d. Glass injection pipettes had tip sizes ranging from 10-20 microns, and were backfilled with mineral oil.
Two electrode voltage-clamp recordings were made 2-7 days post-injection as previously described. Oocytes were placed in a dual-track plexiglass recording chamber with a single perfusion line that splits in a Y-configuration to perfuse two oocytes. Dual recordings were made at room temperature (23° C.) using two Warner OC725B two-electrode voltage clamp amplifiers, arranged as recommended by the manufacturer. Glass microelectrodes (1-10 Megaohms) were filled with 300 mM KCl (voltage electrode) or 3 M KCl (current electrode). The bath clamps communicated across silver chloride wires placed into each side of the recording chamber, both of which were assumed to be at a reference potential of 0 mV. Oocytes were perfused with a solution comprised of (in mM) 90 NaCl, 1 KCl, 10 HEPES, and 0.5 BaCl2; pH was adjusted by addition of 1-3 M NaOH of HCl. Oocytes were recorded under voltage clamp at −40 mV. Final concentrations for control application of glutamate (50 μM) plus glycine (30 μM) were achieved by adding appropriate volumes from 100 and 30 mM stock solutions, respectively. In addition, 10 μM final EDTA was obtained by adding a 1:1000 dilution of 10 mM EDTA, in order to chelate contaminant divalent ions such as Zn^2+. Concentration-response curves for experimental compounds were obtained by applying in successive fashion maximal glutamate/glycine, followed by glutamate/glycine plus variable concentrations of experimental compounds. Dose response curves consisting of 4 to 8 concentrations were obtained in this manner. The baseline leak current at −40 mV was measured before and after recording, and the full recording linearly corrected for any change in leak current. Oocytes with glutamate-evoked responses smaller than 50 nA were not included in the analysis. The level of inhibition by applied experimental compounds was expressed as a percent of the initial glutamate response, and averaged together across oocytes from a single frog. Each experiment consisted of recordings from 3 to 10 oocytes obtained from a single frog. Results from 3-6 experiments were pooled, and the average percent responses at antagonist concentrations were fitted by the equation,
Percent Response=(100−minimum)/(1+([conc]/IC50)^nH)+minimum […]

[1] = pH 6.9, Table 17, read-out: IC50 at pH 6.9
[2] = pH 7.6, Table 17, read-out: IC50 at pH 7.6
[3] = pH 6.9, Table 18, read-out: IC50 at pH 6.9
[4] = pH 7.6, Table 18, read-out: IC50 at pH 7.6
[5] = pH 6.9, Table 19, read-out: IC50 at pH 6.9
[6] = pH 7.6, Table 19, read-out: IC50 at pH 7.6

Chain of NMDA receptor (NR1 + NR2 subunits) (Q00960 27-1482, other chains not shown): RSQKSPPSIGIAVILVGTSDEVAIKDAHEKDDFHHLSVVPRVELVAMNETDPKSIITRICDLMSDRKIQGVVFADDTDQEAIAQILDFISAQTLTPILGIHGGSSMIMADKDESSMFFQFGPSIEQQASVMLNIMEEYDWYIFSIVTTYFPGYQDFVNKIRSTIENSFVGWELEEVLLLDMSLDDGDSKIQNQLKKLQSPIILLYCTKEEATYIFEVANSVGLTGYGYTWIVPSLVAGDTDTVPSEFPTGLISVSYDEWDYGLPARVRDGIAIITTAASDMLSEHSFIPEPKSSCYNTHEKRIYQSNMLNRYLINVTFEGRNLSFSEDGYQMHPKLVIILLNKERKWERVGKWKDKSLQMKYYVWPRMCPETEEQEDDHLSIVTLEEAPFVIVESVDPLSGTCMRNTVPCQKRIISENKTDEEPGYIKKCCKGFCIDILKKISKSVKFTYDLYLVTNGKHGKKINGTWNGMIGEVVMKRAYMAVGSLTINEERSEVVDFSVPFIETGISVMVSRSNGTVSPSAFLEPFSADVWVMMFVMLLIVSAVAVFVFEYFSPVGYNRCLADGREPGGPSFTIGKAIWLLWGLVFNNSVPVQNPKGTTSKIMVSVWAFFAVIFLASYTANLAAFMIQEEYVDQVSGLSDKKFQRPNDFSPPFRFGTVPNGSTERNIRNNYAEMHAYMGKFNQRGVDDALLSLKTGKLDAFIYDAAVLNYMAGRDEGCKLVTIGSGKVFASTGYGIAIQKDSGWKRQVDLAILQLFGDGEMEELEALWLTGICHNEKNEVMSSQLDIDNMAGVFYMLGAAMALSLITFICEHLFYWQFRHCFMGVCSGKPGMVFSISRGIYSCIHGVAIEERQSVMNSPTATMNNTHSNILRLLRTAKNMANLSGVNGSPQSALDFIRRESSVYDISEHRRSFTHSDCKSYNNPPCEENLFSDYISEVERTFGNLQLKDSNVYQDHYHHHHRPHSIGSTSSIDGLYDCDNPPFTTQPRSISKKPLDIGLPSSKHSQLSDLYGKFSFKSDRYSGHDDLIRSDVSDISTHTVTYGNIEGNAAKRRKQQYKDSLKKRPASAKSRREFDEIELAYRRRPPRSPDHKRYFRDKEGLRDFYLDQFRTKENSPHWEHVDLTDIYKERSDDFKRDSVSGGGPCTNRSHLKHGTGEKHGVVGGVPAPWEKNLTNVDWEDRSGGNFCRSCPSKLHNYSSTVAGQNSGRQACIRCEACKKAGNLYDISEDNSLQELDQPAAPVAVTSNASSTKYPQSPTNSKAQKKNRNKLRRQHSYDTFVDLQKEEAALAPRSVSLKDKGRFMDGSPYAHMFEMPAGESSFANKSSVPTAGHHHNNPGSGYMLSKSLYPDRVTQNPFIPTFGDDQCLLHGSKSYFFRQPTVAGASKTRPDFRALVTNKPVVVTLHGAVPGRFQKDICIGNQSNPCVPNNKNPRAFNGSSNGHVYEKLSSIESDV

Row | IC50 [1] | IC50 [2] | IC50 [5] | IC50 [6] | Compound | other results
1 | 31 nM | 557 nM |  |  | CS(=O)(=O)Nc1ccc(OCC(O)CN2CCN(c3ccc(F)c(F)c3)CC2)cc1 (stereo not drawn) | 
2 | 12 nM | 62 nM |  |  | CS(=O)(=O)Nc1ccc(OCC(O)CNCCNc2ccc(Cl)c(Cl)c2)cc1 (stereo not drawn) | 
3 | 296 nM | 1020 nM |  |  | CS(=O)(=O)Nc1ccc(OCC(O)CN2CCN(c3ccc(Cl)c(Cl)c3)CC2)cc1 (stereo not drawn) | 
4 | 32 nM | 270 nM |  |  | CS(=O)(=O)Nc1ccc(OCC(O)CN2CCN(c3ccc(Cl)cc3)CC2)cc1 (stereo not drawn) | 
5 | 213 nM | 1020 nM |  |  | CS(=O)(=O)Nc1ccc(OCC(O)CN2CCN(c3ccccc3)CC2)cc1 (stereo not drawn) | 
6 | 2400 nM | 28000 nM |  |  | CS(=O)(=O)Nc1ccc(OCC(O)CN2CCN(c3ccc(O)cc3)CC2)cc1 (stereo not drawn) | 
7 | 1810 nM | 12700 nM |  |  | CS(=O)(=O)Nc1ccc(OCC(O)CN2CCN(c3ccccn3)CC2)cc1 (stereo not drawn) | 
8 | > 30000 nM | > 30000 nM |  |  | CS(=O)(=O)Nc1ccc(OCC(O)CN2CCN(c3ccncc3)CC2)cc1 (stereo not drawn) | 
9 | 55 nM | 133 nM |  |  | CS(=O)(=O)Nc1ccc(OCC(O)CNCCNc2ccccc2)cc1 (stereo not drawn) | 
10 | 108 nM | 199 nM |  |  | CS(=O)(=O)Nc1ccc(OCC(O)CNCCNc2ccc(F)c(F)c2)cc1 (stereo not drawn) | 
11 | 7 nM | 38 nM |  |  | CS(=O)(=O)Nc1ccc(OCC(O)CNC/C=C/c2ccc(Cl)c(Cl)c2)cc1 (stereo not drawn) | 
12 | 163 nM | 2580 nM |  |  | CCCCN(C/C=C/c1ccc(Cl)c(Cl)c1)CC(O)COc1ccc(NS(C)(=O)=O)cc1 (stereo not drawn) | 
13 | 38 nM | 71 nM |  |  | CS(=O)(=O)Nc1ccc(OCC(O)CNC/C=C/c2ccc(F)c(F)c2)cc1 (stereo not drawn) | 
14 |  |  |  |  | O=c1[nH]c2ccc(OCC(O)CN3CCN(c4ccc(Cl)cc4)CC3)cc2o1 (stereo not drawn) | IC50 [3]: 79 nM; IC50 [4]: 726 nM
15 |  |  |  |  | O=c1[nH]c2ccc(OC[C@H](O)CN3CCN(c4ccc(F)c(F)c4)CC3)cc2o1 | IC50 [3]: 145 nM; IC50 [4]: 1700 nM
16 |  |  |  |  | O=c1[nH]c2ccc(OC[C@H](O)CN3CCN(c4ccc(Cl)c(Cl)c4)CC3)cc2o1 | IC50 [3]: 185 nM; IC50 [4]: 1500 nM
17 |  |  |  |  | Cc1ccc(N2CCN(C[C@@H](O)COc3ccc4[nH]c(=O)oc4c3)CC2)cc1 | IC50 [3]: 72 nM; IC50 [4]: 644 nM
18 |  |  |  |  | O=c1[nH]c2ccc(OCC(O)CNCCc3ccc(Cl)c(Cl)c3)cc2o1 (stereo not drawn) | IC50 [3]: 185 nM; IC50 [4]: 446 nM
19 |  |  |  |  | O=c1[nH]c2ccc(OCC(O)CNCCNc3ccc(Cl)cc3)cc2o1 (stereo not drawn) | IC50 [3]: 25 nM; IC50 [4]: 97 nM
20 |  |  | 80 nM | 814 nM | Oc1ccc(OC[C@H](O)CN2CCN(c3ccc(Cl)cc3)CC2)cc1 | 
21 |  |  | 131 nM | 611 nM | Oc1ccc(OC[C@H](O)CN2CCN(c3ccc(Cl)c(Cl)c3)CC2)cc1 | 
22 |  |  | 87 nM | 980 nM | Oc1ccc(OCC(O)CN2CCN(c3ccc(F)c(F)c3)CC2)cc1 (stereo not drawn) | 
23 |  |  | 50 nM | 272 nM | Oc1ccc(OC[C@H](O)CN2CCN(c3ccc(F)c(F)c3)CC2)cc1 | 
24 |  |  | 87 nM | 529 nM | Oc1ccc(OC[C@H](O)CN2CCN(c3ccc(F)cc3)CC2)cc1 | 
25 |  |  | 1500 nM | 5790 nM | Cc1ccc(N2CCN(CC(O)COc3ccc(O)cc3)CC2)cc1C (stereo not drawn) | 
26 |  |  | 70 nM | 260 nM | Cc1ccc(N2CCN(CC(O)COc3ccc(O)cc3)CC2)cc1 (stereo not drawn) | 
27 |  |  | 460 nM | 4370 nM | N#Cc1ccc(N2CCN(C[C@@H](O)COc3ccc(O)cc3)CC2)cc1 | 
28 |  |  | 73 nM | 204 nM | Oc1ccc(OCC(O)CN2CCN(c3ccc(Br)cc3)CC2)cc1 (stereo not drawn) | 
29 |  |  | 576 nM | 4700 nM | Oc1ccc(OCC(O)CN2CCN(c3ccc(O)cc3)CC2)cc1 (stereo not drawn) | 
30 |  |  | 562 nM | 9740 nM | COc1ccc(N2CCN(C[C@@H](O)COc3ccc(O)cc3)CC2)cc1 | 

Source: patent publication US20110160223A1, “NMDA Receptor Antagonists for the Treatment of Neuropsychiatric Disorders” (priority 2008, published 2011)
